According to PubChem BioAssay AID204 (DTP/NCI, 2004):
Where “and” joins values, the source holds several entries; their conditions need not be identical. Equal values may be shown once. Toxic doses and inconclusive results are not listed.

System: BDF1 mice, P288 methotrexate-resistant leukemia, survival T/C
Test: NCI In Vivo Anticancer Drug Screen. Data for tumor model P288 Lymphocytic Leukemia resistant to methotrexate; NSC 740 (intraperitoneal) in B6D2F1 (BDF1) mice
Settings: endpoint: median survival time, schedule: Q01DX010 (ip), higher = longer survival
Protocol: The antitumor activity of compounds was measured in mice bearing transplantable tumors. Survival or tumor size were measured and the results are expressed as the measurement made in the treated group (T) divided by the measurement made in the vehicle treated control group (C). The tumor model used in this assay is P288 Lymphocytic Leukemia resistant to methotrexate; NSC 740 (intraperitoneal) in B6D2F1 (BDF1) mice

[1] = dose: 16.0 mg/kg/injection, vehicle: saline
[2] = dose: 20.0 mg/kg/injection, vehicle: saline
[3] = dose: 40.0 mg/kg/injection, vehicle: saline
[4] = dose: 6.25 mg/kg/injection, vehicle: saline
[5] = dose: 12.5 mg/kg/injection, vehicle: saline
[6] = dose: 3.13 mg/kg/injection, vehicle: saline
[7] = dose: 25.0 mg/kg/injection, vehicle: saline
[8] = dose: 1.25 mg/kg/injection, vehicle: saline
[9] = dose: 2.5 mg/kg/injection, vehicle: saline
[10] = dose: 10.0 mg/kg/injection, vehicle: saline
[11] = dose: 5.0 mg/kg/injection, vehicle: saline
[12] = dose: 50.0 mg/kg/injection, vehicle: saline

SMILES: O=C(Nc1ccc(C2=NCCN2)cc1)c1cccc(C(=O)Nc2ccc(C3=NCCN3)cc2)c1
- T/C (dose: 8.0 mg/kg/injection, vehicle: saline): 155 % of control and 166 % of control
- T/C [1]: 185 % of control and 194 % of control
- T/C (dose: 32.0 mg/kg/injection, vehicle: saline): 200 % of control and 238 % of control
- T/C (dose: 64.0 mg/kg/injection, vehicle: saline): 250 % of control and 255 % of control

SMILES: OCC1OC(n2cnc3c(=S)nc[nH]c32)C(O)C1O (stereo not given)
- T/C [2]: 100 % of control and 105 % of control
- T/C [3]: 95 % of control and 105 % of control
- T/C (dose: 80.0 mg/kg/injection, vehicle: saline): 100 % of control and 110 % of control
- T/C (dose: 160.0 mg/kg/injection, vehicle: saline): 100 % of control and 105 % of control

SMILES: O=NN(CCCl)C(=O)NCCCl
- T/C [4]: 280 % of control and 300 % of control
- T/C [5]: 180 % of control

SMILES: [I][Hg][CH2]C1COC([CH2][Hg][I])CO1 (stereo not given)
- T/C (dose: 1.56 mg/kg/injection, vehicle: saline): 86 % of control
- T/C [6]: 95 % of control
- T/C [4]: 100 % of control
- T/C [5]: 100 % of control
- T/C [7]: 87 % of control

SMILES: O=C(O)CCCc1ccc(N(CCCl)CCCl)cc1
- T/C [6]: 90 % of control and 95 % of control
- T/C [4]: 91 % of control and 100 % of control
- T/C [5]: 115 % of control

SMILES: N#[N+]c1cnc([O-])[nH]c1=O
- T/C [8]: 100 % of control
- T/C [9]: 116 % of control and 118 % of control

SMILES: Nc1nc2n[nH]nc2c(=O)[nH]1
- T/C (dose: 25.0 mg/kg/injection, vehicle: alkali diluted with saline): 110 % of control
- T/C (dose: 50.0 mg/kg/injection, vehicle: alkali diluted with saline): 112 % of control

SMILES: C=CC(CN1CC1)OC(C)=O (stereo not given)
- T/C (dose: 2.0 mg/kg/injection, vehicle: saline): 90 % of control and 95 % of control
- T/C (dose: 4.0 mg/kg/injection, vehicle: saline): 100 % of control and 118 % of control
- T/C [1]: 95 % of control and 100 % of control

SMILES: CCOC(=O)c1[nH]c2ccccc2c1CN(CCCl)CCCl
- T/C [10]: 96 % of control
- T/C [2]: 111 % of control

SMILES: O=c1cn[nH]c(=O)[nH]1
- T/C (dose: 62.5 mg/kg/injection, vehicle: saline): 90 % of control and 110 % of control
- T/C (dose: 125.0 mg/kg/injection, vehicle: saline): 105 % of control and 110 % of control
- T/C (dose: 250.0 mg/kg/injection, vehicle: saline): 105 % of control and 120 % of control
- T/C (dose: 500.0 mg/kg/injection, vehicle: saline): 110 % of control and 120 % of control

SMILES: Cn1cnc([N+](=O)[O-])c1Sc1nc(N)nc2nc[nH]c12
- T/C [9]: 109 % of control
- T/C [11]: 90 % of control
- T/C [10]: 109 % of control
- T/C [2]: 109 % of control

SMILES: C[C@H](N)C(=O)N[C@@H]1[C@H]2C(=C(O)C[C@@H](O)[C@@H]2O)C(=O)O[C@@H]1C
- T/C (dose: 150.0 mg/kg/injection, vehicle: saline): 112 % of control
- T/C (dose: 600.0 mg/kg/injection, vehicle: saline): 150 % of control
- T/C (dose: 1200.0 mg/kg/injection, vehicle: saline): 183 % of control

SMILES: N=C(N)c1ccc(Nc2ccc(C(=N)N)cc2)cc1
- T/C (dose: 12.0 mg/kg/injection, vehicle: saline): 90 % of control

SMILES: COS(C)(=O)=O
- T/C [12]: 90 % of control

SMILES: Oc1cc(CN(CCCl)CCCl)c(O)cc1CN(CCCl)CCCl
- T/C (dose: 0.63 mg/kg/injection, vehicle: saline): 104 % of control and 115 % of control
- T/C [8]: 121 % of control
- T/C [11]: 115 % of control

SMILES: CN(N=O)C(N)=O
- T/C [10]: 110 % of control
- T/C [2]: 150 % of control
- T/C [3]: 95 % of control

SMILES: CN(C)/N=N/c1nc[nH]c1C(N)=O
- T/C [7]: 100 % of control
- T/C [12]: 90 % of control
- T/C (dose: 100.0 mg/kg/injection, vehicle: saline): 105 % of control and 109 % of control
- T/C (dose: 200.0 mg/kg/injection, vehicle: saline): 90 % of control and 100 % of control
